Laboratory results: US10610125B2, “Methods and compositions for cell-proliferation-related disorders” (Agios Pharmaceuticals, Inc., priority 2009, dated 2020)
Where “and” joins values, the source holds several entries; their conditions need not be identical. Identical values can stand only once. Like-named read-outs stand apart in the source and are kept apart here.

Experiments:
ICDH1 R132H = ICDH1 R132H (Homo sapiens (Human), UniProt O75874, R132H); assay: IDH1 R132H inhibition assay (NADPH/aKG, resazurin to resorufin fluorescence); assay type: biochemical; settings: for IC50 Ratio (40/4): ratio of IC50 at 40 uM to 4 uM NADPH; for IC50: IDH1 R132H
Sequence of ICDH1 R132H (O75874 whole entry R132H): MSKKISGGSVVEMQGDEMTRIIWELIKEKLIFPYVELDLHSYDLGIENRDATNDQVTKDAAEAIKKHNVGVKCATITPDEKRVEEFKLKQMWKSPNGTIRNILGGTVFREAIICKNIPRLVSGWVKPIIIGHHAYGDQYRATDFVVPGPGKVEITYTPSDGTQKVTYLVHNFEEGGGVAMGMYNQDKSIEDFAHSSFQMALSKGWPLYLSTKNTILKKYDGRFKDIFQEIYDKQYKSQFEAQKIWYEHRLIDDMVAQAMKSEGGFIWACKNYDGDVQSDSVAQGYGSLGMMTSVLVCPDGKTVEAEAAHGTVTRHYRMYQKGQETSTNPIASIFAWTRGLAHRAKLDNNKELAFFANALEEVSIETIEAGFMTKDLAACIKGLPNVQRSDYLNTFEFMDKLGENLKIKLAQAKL
Description: Assays were conducted in a volume of 76 ul assay buffer (150 mM NaCl, 10 mM MgCl2, 20 mM Tris pH 7.5, 0.03% bovine serum albumin) as follows in a standard 384-well plate: To 25 ul of substrate mix ([…], 2 mM aKG), 1 ul of test compound was added in DMSO. […] The reaction was incubated for 50 minutes at room temperature, then 25 ul of detection mix (30 uM resazurin, […]) was added and the mixture further incubated for 5 minutes at room temperature. The conversion of resazurin to resorufin was detected by fluorescent spectroscopy at Ex544 Em590 c/o 590.
(§1) The selectivity between wild type vs mutant could be >20-fold.

IDH1 wt [1] = target: T1, IDH1 wt (Homo sapiens (Human), UniProt O75874); assay: IDH1 wt assay for inhibitor selectivity (1×Km of NADPH); assay type: biochemical; settings: 1x Km NADPH; for IC50: read-out: IDH1wt IC50 @ 1x Km
T1 sequence (O75874 whole entry): as the sequence (O75874 whole entry R132H) above, with H132R counted along it
Source text: as §1

IDH1 wild-type [2] = target: T2, IDH1 wild-type (Homo sapiens (Human), UniProt O75874); assay: Oxidative decarboxylation of isocitrate to α-KG by IDH1 wild-type (340 nm); assay type: biochemical; settings: for effect on oxidative decarboxylation of isocitrate by wild-type ICDH1: added in a titration series
T2 sequence (O75874 whole entry): as the sequence (O75874 whole entry R132H) above, with H132R counted along it
Description: (§2) In these reactions, the substrate was varied while the cofactor was held constant at 500 uM. All reactions were performed in 150 mM NaCl, 20 mM Tris-Cl, pH 7.5, 10% glycerol, and 0.03% (w/v) BSA). Reaction progress was followed by spectroscopy at 340 nM monitoring the change in oxidation state of the cofactor. Sufficient enzyme was added to give a linear change in absorbance for 10 minutes.
(§3) A well-known regulatory mechanism for control of metabolic enzymes is feedback inhibition, in which the product of the reaction acts as a negative regulator for the generating enzyme.

IDH1 R132C [3] = target: T3, IDH1 R132C (Homo sapiens (Human), UniProt O75874, R132C); assay: IDH1/2 activity assay, forward reaction (isocitrate, NADP+), stopped-flow, IDH1 R132C; assay type: biochemical
T3 sequence (O75874 whole entry R132C): as the sequence (O75874 whole entry R132H) above, with H132C counted along it
Description: (§4) Enzymatic binding constants were determined using curve fitting algorithms to standard kinetic models with the Sigmaplot software package (Systat Software, San Jose, Calif.). For determination of kcat, enzyme was incubated with 5×Km of substrate and cofactor; consumption of NADPH or NADP was determined by a change in the OD340 over time. In both cases an extinction coefficient of 6200 M^−1 cm^−1 was used for NADPH.

IDH1 R132S [4] = target: T4, IDH1 R132S (Homo sapiens (Human), UniProt O75874, R132S); assay: Reduction of alpha-ketoglutarate with NADH by IDH1 R132S; assay type: biochemical; settings: NADH 0.5 mM, alpha-Ketoglutarate 5 mM, R132S 30 ug/ml
T4 sequence (O75874 whole entry R132S): as the sequence (O75874 whole entry R132H) above, with H132S counted along it
Description: (§5) In order to evaluate the ability of the mutant enzymes to utilize NADH in the reduction of alpha-ketoglutarate, the following experiment was conducted.

IDH1 wt [5] = target: T1, IDH1 wt; assay: Reduction of alpha-ketoglutarate with NADH by IDH1 wild type; assay type: biochemical; settings: IDH1 wt 5 ug/ml, NADH 0.5 mM
Description: as §5

IDH1 R132H [6] = target: T5, IDH1 R132H (Homo sapiens (Human), UniProt O75874, R132H); assay: Reduction of alpha-ketoglutarate with NADH by IDH1 R132H; assay type: biochemical; settings: R132H 60 ug/ml, NADH 0.5 mM
T5 sequence (O75874 whole entry R132H): as the sequence (O75874 whole entry R132H) above
Description: as §5

IDH1 R132C [7] = target: T3, IDH1 R132C; assay: IDH1/2 activity assay, reverse reaction (α-KG, NADPH), stopped-flow, IDH1 R132C; assay type: biochemical; settings: Reductive (→ NADP+)
Description: as §4

IDH1 R132H [8] = target: T5, IDH1 R132H; assay: Oxidative decarboxylation of isocitrate to α-KG by IDH1 R132H (340 nm); assay type: biochemical
Description: as §2, §3

IDH1 R132S [9] = target: T4, IDH1 R132S; assay: Oxidative decarboxylation of isocitrate to α-KG by IDH1 R132S (340 nm); assay type: biochemical
Description: as §2, §3

IDH1 wild-type [10] = target: T2, IDH1 wild-type; assay: IDH1/2 activity assay, forward reaction (isocitrate, NADP+), stopped-flow, IDH1 wild-type; assay type: biochemical; settings: Oxidative (→ NADPH), WT
Description: as §4

glioblastoma multiforme [11] = settings: cited from earlier work
glioblastoma multiforme [12] = settings: cited from earlier work; remark: listed apart in the source
recurrent glioma = recurrent glioma patients; cited from earlier work
IDH1 R132H [13] = target: T5, IDH1 R132H; assay: Reduction of α-KG with NADPH by IDH1 R132H; assay type: biochemical
Description: (§6) In these reactions, substrate was varied while the cofactor was held constant at 500 uM. All reactions were performed in 50 mM potassium phosphate buffer, pH 6.5, 10% glycerol, 0.03% (w/v) BSA, 5 mM MgCl2, and 40 mM sodium hydrocarbonate. Reaction progress was followed by spectroscopy at 340 nM monitoring the change in oxidation state of the cofactor. Sufficient enzyme was added to give a linear change in absorbance for 10 minutes.

IDH1 R132S [14] = target: T4, IDH1 R132S; assay: Reduction of α-KG with NADPH by IDH1 R132S; assay type: biochemical
Description: as §6

IDH1 wild-type [15] = target: T2, IDH1 wild-type; assay: Reduction of α-KG with NADPH by IDH1 wild-type; assay type: biochemical; settings: 40 ug/ml enzyme
Description: as §6

IDH1 wild-type [16] = target: T2, IDH1 wild-type; assay: IDH1/2 activity assay, reverse reaction (α-KG, NADPH), stopped-flow, IDH1 wild-type; assay type: biochemical; settings: Reductive (→ NADP+); WT; est.
Description: as §4

[17] = read-out: ICDH IC50 (uM) @ 4 uM (10x Km) NADPH, 4 uM (10x Km) NADPH
[18] = read-out: ICDH IC50 (uM) @ 40 uM NADPH, 40 uM (100x Km) NADPH
[19] = for isocitrate, cofactor 500 uM
[20] = with radiation, vs radiation alone
[21] = without MGMT promoter methylation
[22] = α-KG product inhibition, competitive with isocitrate, read-out: Ki
[23] = for α-KG, cofactor 500 uM, pH 6.5
[24] = α-KG varied, cofactor 500 uM, pH 6.5

Compound: Cc1c(/C=C2\Sc3ccccc3C2=O)c(O)n2c(nc3ccccc32)c1C#N
- IC50 Ratio (40/4) (ICDH1 R132H): 17.42
- IC50 (ICDH1 R132H; [17]): 5.74 µM
- IC50 (ICDH1 R132H; [18]): > 100 µM
- IC50 (IDH1 wt [1]): 16.2 µM

Compound: Cc1ccc(C2=NN(c3ccccc3)C(c3cn(CCC(=O)O)nc3-c3ccccc3)C2)cc1 (stereo not drawn)
- IC50 Ratio (40/4) (ICDH1 R132H): 3.38
- IC50 (ICDH1 R132H; [17]): 12.3 µM
- IC50 (ICDH1 R132H; [18]): 41.4 µM
- IDH1wt IC50 @ 1x Km (uM) (IDH1 wt [1]): NO inhibition

Compound: O=C1NC(=S)S/C1=C\c1cccc(OC(=O)c2cccc(F)c2)c1
- IC50 Ratio (40/4) (ICDH1 R132H): 1.15
- IC50 (ICDH1 R132H; [17]): 12.8 µM
- IC50 (ICDH1 R132H; [18]): 14.7 µM
- IC50 (IDH1 wt [1]): 19.2 µM

Compound: Cc1cc(C(=O)O)ccc1-c1ccc(/C=C2/NC(=O)N(Cc3ccc(Br)cc3)C2=O)o1
- IC50 Ratio (40/4) (ICDH1 R132H): 1.28
- IC50 (ICDH1 R132H; [17]): 15 µM
- IC50 (ICDH1 R132H; [18]): 19.2 µM
- IC50 (IDH1 wt [1]): 46.8 µM

Compound: O=C1NC(=S)S/C1=C/c1cccc(OCc2ccc([N+](=O)[O-])cc2)c1
- IC50 Ratio (40/4) (ICDH1 R132H): 1.39
- IC50 (ICDH1 R132H; [17]): 23.8 µM
- IC50 (ICDH1 R132H; [18]): 33.2 µM
- IC50 (IDH1 wt [1]): 69.3 µM

Compound: O=C(O)CC[C@@H](O)C(=O)O [(R)-2-hydroxyglutarate]
- effect on oxidative decarboxylation of isocitrate by wild-type ICDH1 (IDH1 wild-type [2]): did not show any effect

Compound: [Cl-].[Cl-].[Mg+2] [MgCl2]
- Km (IDH1 R132C [3]; Oxidative (→ NADPH), read-out: KM,MgCl2): 450 µM

Compound: NC(=O)C1=CN([C@@H]2O[C@H](COP(=O)(O)OP(=O)(O)OC[C@H]3O[C@@H](n4cnc5c(N)ncnc54)[C@H](O)[C@@H]3O)[C@@H](O)[C@H]2O)C=CC1 [NADH]
- Consumption of NADH, Mean (IDH1 R132S [4]): 0.709 Umol/min/mg
- Consumption of NADH, individual runs (IDH1 R132S [4]): 0.7183 Umol/min/mg and 0.6997 Umol/min/mg
- Rate, consumption of NADH, Mean (IDH1 R132S [4]): 0.001103 ΔA/sec
- Rate, consumption of NADH, individual runs (IDH1 R132S [4]): 0.001117 ΔA/sec and 0.001088 ΔA/sec
- consumption of NADH in the presence of alpha-ketoglutarate (IDH1 wt [5]): no measurable consumption
- consumption of NADH in the presence of alpha-ketoglutarate (IDH1 R132H [6]): no measurable consumption

Compound: NC(=O)c1ccc[n+]([C@@H]2O[C@H](COP(=O)([O-])OP(=O)(O)OC[C@H]3O[C@@H](n4cnc5c(N)ncnc54)[C@H](OP(=O)(O)O)[C@@H]3O)[C@@H](O)[C@H]2O)c1 [NADP+]
- Km (IDH1 R132C [3]; Oxidative (→ NADPH), read-out: KM,NADP+): 21 µM

Compound: NC(=O)C1=CN([C@@H]2O[C@H](COP(=O)(O)OP(=O)(O)OC[C@H]3O[C@@H](n4cnc5c(N)ncnc54)[C@H](OP(=O)(O)O)[C@@H]3O)[C@@H](O)[C@H]2O)C=CC1 [NADPH]
- Km (IDH1 R132C [7]; read-out: KM,NADPH): 0.3 µM

Compound: O=C(O)C(=O)C(C(=O)O)C(O)C(=O)O (stereo not drawn) [Oxalomalate, oxalomalate]
- Ki (IDH1 wild-type [2]; IDH1 wt 1.5 ug/ml, NADP 0.5 mM, DL-isocitrate 5-650 uM, read-out: Oxalomalate Ki): 955 µM
- Ki (IDH1 R132H [8]; IDH1R132H 60 ug/ml, NADP 0.5 mM, DL-isocitrate 5-650 uM, read-out: Oxalomalate Ki): 951 µM
- susceptibility to inhibition by oxalomalate (IDH1 R132H [8]; R132H vs wt): essentially unaffected
- Ki (IDH1 R132S [9]; IDH1R132S 30 ug/ml, NADP 0.5 mM, DL-isocitrate 5-650 uM, read-out: Oxalomalate Ki): 510 µM
- increase in susceptibility to inhibition by oxalomalate (IDH1 R132S [9]; R132S vs wt): two-fold

Compound: O=C(O)CC(C(=O)O)C(O)C(=O)O (stereo not drawn) [isocitrate]
- Km (IDH1 wild-type [2]; [19]): 56.8 µM
- Km (IDH1 R132H [8]; [19]): 172 µM
- Km (IDH1 wild-type [10]; read-out: KM,isocitrate): 57 µM
- Km (IDH1 R132C [3]; read-out: KM,isocitrate, Oxidative (→ NADPH)): 87000 µM

Compound: O=C(O)CCC(O)C(=O)O (stereo not drawn) [reaction product 2-HG, 2-hydroxyglutarate]
- effect on oxidative decarboxylation of isocitrate by wild-type ICDH1 (IDH1 wild-type [2]): inhibit

Compound: Cn1nnc2c(C(N)=O)ncn2c1=O [temozolomide, Temozolomide]
- tolerability (glioblastoma multiforme [11]; in vivo): well tolerated
- likelihood of being alive in 2 years (glioblastoma multiforme [11]; [20]): 26%
- median progression-free survival (glioblastoma multiforme [11]; [20]): 6.9 mo
- overall survival (glioblastoma multiforme [11]; [20]): 14.6 mo
- 2-year survival rate (glioblastoma multiforme [12]; with MGMT promoter methylation): 46%
- median survival (glioblastoma multiforme [12]; with MGMT promoter methylation): 21.7 months
- 2-year survival rate (glioblastoma multiforme [12]; [21]): 13.8%
- median survival (glioblastoma multiforme [12]; [21]): 12.7 months
- 6-month survival (recurrent glioma): 21%

Compound: O=C(O)CCC(=O)C(=O)O [α-KG, α-Ketoglutarate]
- Ki (IDH1 wild-type [2]; [22]): 612 µM
- Ki (IDH1 R132H [8]; [22]): 28.6 µM
- increase in sensitivity to feedback inhibition as compared to the wild-type enzyme (IDH1 R132H [8]; α-KG, R132H vs wild-type): 20 fold
- Ki (IDH1 R132S [9]; [22]): 45.3 µM
- increase in sensitivity to feedback inhibition as compared to the wild-type enzyme (IDH1 R132S [9]; α-KG, R132S vs wild-type): 13 fold
- Km (IDH1 R132H [13]; [23]): 965 µM
- Hill Constant (IDH1 R132H [13]; α-KG varied): 1.8
- Vmax (IDH1 R132H [13]; [24]): 1.3 µmol/min/mg
- Km (IDH1 R132S [14]; [23]): 181 µM
- Ki (IDH1 R132S [14]; uncompetitive substrate inhibition by α-KG): 24600 µM
- Hill Constant (IDH1 R132S [14]; α-KG varied): 0.479
- Vmax (IDH1 R132S [14]; [24]): 2.7 µmol/min/mg
- NADPH consumption in reduction of α-KG (IDH1 wild-type [15]): unable to consume NADPH
- Ki (IDH1 wild-type [10]; read-out: Ki,αKG): 610 µM
- Ki (IDH1 R132C [3]; Oxidative (→ NADPH), read-out: Ki,αKG): 61 µM
- Km (IDH1 R132C [7]; read-out: KM,αKG): 295 µM

Compound: R132C
- kcat (IDH1 R132C [3]; Oxidative (→ NADPH)): 710 s⁻¹
- kcat (IDH1 R132C [7]): 550 s⁻¹

Compound: WT
- kcat (IDH1 wild-type [10]): 130000 s⁻¹
- kcat (IDH1 wild-type [16]): ~7 (est.) s^−1
